Test results taken from the supplement of paper PMC11061612.

Assays:
[1] = test system: BT-474 (Breast Carcinoma); experiment: combination Emax (second highest fraction inhibited in the dose matrix, 72 h); higher = more inhibition; extreme values may be limits of the assay
Procedure, shortened: (§1)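 After 24 hours at 37°C and 5% CO2 in 1536-well plates, cells in DMEM/F12 or RPMI plus 10% FBS received two-drug dose matrices for 72 hours. Viability came from CellTiter-Glo 2.0 luminescence and was scaled as inhibition, anchored at 0 by vehicle wells and at 1 by blank wells. Combination Emax is taken as the second-highest inhibition in the matrix, and Bliss excess as the observed combination effect less EA + EB − EA·EB, with EA and EB the single-agent effects.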

[2] = test system: RS4-11 (B-Lymphoblastic Leukemia); experiment: as above
Procedure, shortened: as §1

[3] = test system: SUP-HD1 (Hodgkin's Lymphoma); experiment: as above
Procedure, shortened: as §1

[4] = test system: NCI-H1944 (Lung Adenocarcinoma); experiment: as above
Procedure, shortened: as §1

[5] = test system: NCI-H1048 (Small Cell Lung Carcinoma); experiment: as above
Procedure, shortened: as §1

[6] = test system: TK (B-Cell Non-Hodgkin's Lymphoma); experiment: as above
Procedure, shortened: as §1

[7] = test system: SCC90 (Head and Neck Carcinoma); experiment: Bliss excess, mean over the matrix (fraction); higher = more synergy
Procedure, shortened: as §1

[8] = test system: SBC-5 (Small Cell Lung Carcinoma); experiment: as above
Procedure, shortened: as §1

[9] = test system: HT-1197 (Bladder Carcinoma); experiment: as above
Procedure, shortened: as §1

A375 (Melanoma) = experiment: as above
Procedure, shortened: as §1

[10] = test system: SW1463 (Colorectal Carcinoma); experiment: combination Emax (second highest fraction inhibited in the dose matrix, 72 h); higher = more inhibition; extreme values may be limits of the assay
Procedure, shortened: as §1

[11] = test system: SBC-3 (Small Cell Lung Carcinoma); experiment: as above
Procedure, shortened: as §1

[12] = test system: OVKATE (Ovarian Carcinoma); experiment: as above
Procedure, shortened: as §1

GCIY (Gastric Carcinoma) = experiment: as above
Procedure, shortened: as §1

[13] = test system: NTERA-2-cl-D1 (Other Solid Carcinomas); experiment: as above
Procedure, shortened: as §1

[14] = test system: NCI-H2023 (Non-Small Cell Lung Carcinoma); experiment: as above
Procedure, shortened: as §1

[15] = test system: MRK-nu-1 (Breast Carcinoma); experiment: Bliss excess, mean over the matrix (fraction); higher = more synergy
Procedure, shortened: as §1

NCI-H2452 (Mesothelioma) = experiment: as above
Procedure, shortened: as §1

[16] = test system: RPMI-8402 (T-Lymphoblastic Leukemia); experiment: as above
Procedure, shortened: as §1

[17] = test system: NCI-H2023 (Non-Small Cell Lung Carcinoma); experiment: as above
Procedure, shortened: as §1
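Throughout, for Bliss excess, mean over the matrix: after 72 h of two-drug dosing.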

Row | SMILES | combination Emax [1] | combination Emax [2] | combination Emax [3] | combination Emax [4] | combination Emax [5] | combination Emax [6] | Bliss excess [7] | Bliss excess [8] | Bliss excess [9] | Bliss excess (A375 (Melanoma)) | combination Emax [10] | combination Emax [11] | combination Emax [12] | combination Emax (GCIY (Gastric Carcinoma)) | combination Emax [13] | combination Emax [14] | Bliss excess [15] | Bliss excess (NCI-H2452 (Mesothelioma)) | Bliss excess [16] | Bliss excess [17]
1 | CC(=O)c1c(C)c2cnc(Nc3ccc(N4CCNCC4)cn3)nc2n(C2CCCC2)c1=O [Palbociclib] + CN(CC[C@H](CSC1=CC=CC=C1)NC2=C(C=C(C=C2)S(=O)(=O)NC(=O)C3=CC=C(C=C3)N4CCC(CC4)[C@H](C5=CC=CC=C5C6=CC=C(C=C6)Cl)O)S(=O)(=O)C(F)(F)F)CCO [AZD4320] (first compound max 10 µM, 7x7, partner max 1 µM) | 0.124 | 1 | 0.946 | 0.628 | 0.677 | 0.996 | -0.0407 | -0.0715 | -0.0184 | -0.0569 |  |  |  |  |  |  |  |  |  | 
2 | CN(C)CCCOc1ccc(-c2ccc3ncc4c(c3c2)n(C2CCOCC2)c(=O)n4C)cn1 [AZD0156] + C[C@@H]1COCCN1C2=NC(=NC(=C2)C3(CC3)[S@](=N)(=O)C)C4=C5C=CNC5=NC=C4 [AZD6738] (first compound max 1 µM, 7x7, partner max 10 µM) | 0.198 | 0.943 | 0.785 | 0.868 | 0.468 | 0.907 | 0.0037 | 0.0116 | -0.0362 | 0.0378 | 0.558 | 0.798 | 0.257 | 0.851 | 0.595 | 0.836 | -0.0411 | -0.0547 | 0.0028 | -0.021
3 | C[C@@H]1COCCN1c1cc(C2([S@](C)(=N)=O)CC2)nc(-c2ccnc3[nH]ccc23)n1 [AZD6738] + O=C(c1cc(Cc2n[nH]c(=O)c3ccccc23)ccc1F)N1CCN(C(=O)C2CC2)CC1 [Olaparib] (first compound max 10 µM, 7x7, partner max 10 µM) | 0.218 | 0.979 | 0.725 | 0.745 | 0.786 | 0.878 | 0.021 | 0.0025 | -0.0042 | 0.0238 | 0.951 | 0.699 | 0.305 | 0.811 | 0.894 | 0.846 | 0.0457 | -0.0415 | 0.013 | 0.0867
4 | CC(=O)c1c(C)c2cnc(Nc3ccc(N4CCNCC4)cn3)nc2n(C2CCCC2)c1=O [Palbociclib] + Cc1c2c(nn1C)CSCc1cc(n(C)n1)CSc1cc(c3ccccc3c1)OCCCc1c(C(=O)O)n(C)c3c-2c(Cl)ccc13 [AZD5991] (first compound max 10 µM, 7x7, partner max 1 µM) | 0.497 | 0.841 | 0.62 | 0.633 | 0.65 | 0.266 | -0.0224 | -0.0171 | -0.0289 | -0.0057 | 0.58 | 0.806 | 0.208 | 0.2 | 0.509 | 0.234 | -0.0869 | -0.0651 | 0.0046 | -0.0335
5 | CC1(C)CCC(CN2CCN(c3ccc(C(=O)NS(=O)(=O)c4ccc(NCC5CCOCC5)c([N+](=O)[O-])c4)c(Oc4cnc5[nH]ccc5c4)c3)CC2)=C(c2ccc(Cl)cc2)C1 [Venetoclax] + COc1cc(Nc2ncc3c(n2)-c2ccc(Cl)cc2C(c2c(F)cccc2OC)=NC3)ccc1C(=O)O [Alisertib] (first compound max 1 µM, 7x7, partner max 10 µM) | 0.242 | 1 | 0.906 | 0.544 | 0.948 | 1 | 0.135 | 0.024 | -0.0358 | 0.0294 | 0.656 | 0.942 | 0.311 | 0.94 | 0.954 | 0.477 | 0.129 | 0.0053 | -0.0525 | -0.0679
6 | Cc1c2c(nn1C)CSCc1cc(n(C)n1)CSc1cc(c3ccccc3c1)OCCCc1c(C(=O)O)n(C)c3c-2c(Cl)ccc13 [AZD5991] + C1CN(CCC1(C(=O)N[C@@H](CCO)C2=CC=C(C=C2)Cl)N)C3=NC=NC4=C3C=CN4 [Capivasertib] (first compound max 1 µM, 7x7, partner max 3 µM) | 0.746 | 0.519 | 0.777 | 0.344 | 1 | 0.17 | -0.0533 | -0.0069 | -0.0002 | -0.0192 | 0.216 | 0.334 | 0.273 | 0.36 | 0.529 | 0.299 | 0.0055 | -0.0146 | 0.0508 | -0.0028
7 | CN(C)CCCOc1ccc(-c2ccc3ncc4c(c3c2)n(C2CCOCC2)c(=O)n4C)cn1 [AZD0156] + CCN(CCO)CCCOc1ccc2c(Nc3cc(CC(=O)Nc4cccc(F)c4)[nH]n3)ncnc2c1 [AZD2811] (first compound max 1 µM, 7x7, partner max 1 µM) | 0.0605 | 0.979 | 0.48 | 0.205 | 0.547 | 0.273 | -0.0021 | 0.0184 | -0.0376 | -0.0112 | 0.108 | 0.409 | 0.127 | 0.378 | 0.469 | 0.252 | 0.0186 | -0.042 | -0.0022 | 0.0066
8 | COc1nnc2ccc(N3CCC(c4ccc(OCCN5CCN(C)C(=O)[C@H]5C)cc4)CC3)nn12 [AZD5153] + C=CCn1c(=O)c2cnc(Nc3ccc(N4CCN(C)CC4)cc3)nc2n1-c1cccc(C(C)(C)O)n1 [AZD1775] (first compound max 1 µM, partner max 1 µM) | 0.526 | 0.979 | 0.783 | 0.84 | 0.787 | 0.97 | -0.0282 | -0.015 | -0.0045 | -0.0212 | 0.478 | 0.767 | 0.344 | 0.605 | 0.672 | 0.501 | -0.0354 | -0.0525 | -0.0212 | 0.0244
9 | CC1(C)CCC(CN2CCN(c3ccc(C(=O)NS(=O)(=O)c4ccc(NCC5CCOCC5)c([N+](=O)[O-])c4)c(Oc4cnc5[nH]ccc5c4)c3)CC2)=C(c2ccc(Cl)cc2)C1 [Venetoclax] + C1CN(CCC1(C(=O)N[C@@H](CCO)C2=CC=C(C=C2)Cl)N)C3=NC=NC4=C3C=CN4 [Capivasertib] (first compound max 1 µM, 7x7, partner max 3 µM) | 0.383 | 1 | 0.877 | 0.249 | 0.679 | 0.996 | 0.0282 | -0.041 | -0.0444 | -0.0463 | 0.11 | 0.543 | 0.199 | 0.442 | 0.692 | 0.424 | -0.0212 | -0.0318 | -0.0544 | -0.0449
10 | Cc1c2c(nn1C)CSCc1cc(n(C)n1)CSc1cc(c3ccccc3c1)OCCCc1c(C(=O)O)n(C)c3c-2c(Cl)ccc13 [AZD5991] + C=CCn1c(=O)c2cnc(Nc3ccc(N4CCN(C)CC4)cc3)nc2n1-c1cccc(C(C)(C)O)n1 [AZD1775] (first compound max 1 µM, partner max 1 µM) | 0.469 | 0.995 | 0.82 | 0.737 | 1 | 0.927 | -0.0001 | 0.0501 | -0.0866 | 0.0237 | 0.471 | 0.602 | 0.428 | 0.545 | 0.82 | 0.603 | -0.0285 | 0.0015 | -0.0295 | 0.0092
11 | NC1(C(=O)N[C@@H](CCO)c2ccc(Cl)cc2)CCN(c2ncnc3[nH]ccc23)CC1 [Capivasertib] + Cn1cnc2c(F)c(Nc3ccc(Br)cc3Cl)c(C(=O)NOCCO)cc21 [Selumetinib] (first compound max 10 µM, 7x7, partner max 10 µM) | 0.39 | 0.468 | 0.496 | 0.738 | 0.7 | 0.0522 | 0.0331 | 0.0801 | 0.0646 | 0.0344 | 0.65 | 0.346 | 0.385 | 0.512 | 0.321 | 0.369 | 0.0218 | -0.092 | -0.037 | -0.0583
12 | Cc1c2c(nn1C)CSCc1cc(n(C)n1)CSc1cc(c3ccccc3c1)OCCCc1c(C(=O)O)n(C)c3c-2c(Cl)ccc13 [AZD5991] + Cc1cc2ncnn2cc1Nc1ncc2c(n1)n(C1CCOCC1)c(=O)n2C [AZD7648] (first compound max 1 µM, 7x7, partner max 10 µM) | 0.301 | 0.501 | 0.576 | 0.384 | 0.988 | 0.204 | -0.029 | -0.0447 | -0.059 | -0.0244 | 0.223 | 0.456 | 0.284 | 0.526 | 0.662 | 0.441 | -0.0058 | -0.0065 |  | -0.0423
13 | COc1nnc2ccc(N3CCC(c4ccc(OCCN5CCN(C)C(=O)[C@H]5C)cc4)CC3)nn12 [AZD5153] + CN(CC[C@H](CSC1=CC=CC=C1)NC2=C(C=C(C=C2)S(=O)(=O)NC(=O)C3=CC=C(C=C3)N4CCC(CC4)[C@H](C5=CC=CC=C5C6=CC=C(C=C6)Cl)O)S(=O)(=O)C(F)(F)F)CCO [AZD4320] (first compound max 1 µM, 7x7, partner max 1 µM) | 0.531 | 1 | 0.988 | 0.616 | 0.801 | 1 | 0.021 | -0.0012 | 0.073 | 0.0183 |  |  |  |  |  |  |  |  |  | 
